Experimental data taken from publication PMC3913620, “Preclinical Evaluation of the Novel, Orally Bioavailable Selective Inhibitor of Nuclear Export (SINE) KPT-335 in Spontaneous Canine Cancer: Results of a Phase I Study” (PLoS ONE, 2014).
Where “and” joins values, the source holds several entries; their conditions need not be identical. Equal values may be shown once.

Legend:
[1] = system: primary canine DLBCL cells; experiment: Annexin V apoptosis assay (flow cytometry), primary canine DLBCL; type: cell-based; conditions: primary canine DLBCL (sample #1), 100 nM, 24 hours
Protocol: Jurkat cells and primary canine DLBCL cells were cultured for 24 hours in the presence of 100 nM KPT-335 or dimethyl sulfoxide (DMSO). Cells were stained with Annexin V (eBiosciences, San Diego, CA) according to the manufacturer’s instruction. Flow cytometry was performed using a BD LSRII flow cytometer (BD Immunocytometry Systems, San Jose, CA) and results were analyzed using FlowJo software (Tree Star, Ashland, OR).

[2] = Tolerability in normal laboratory dogs (data not shown); conditions: dog, in vivo
CLBL1 cells = experiment: Annexin V apoptosis assay (flow cytometry), CLBL1; type: cell-based, canine; conditions: CLBL1, 100 nM, 24 hours
[3] = system: dogs with spontaneous cancer (NHL, mast cell tumor, osteosarcoma); experiment: Phase I dose escalation study, tumor response; type: in vivo
Protocol: This study was a Phase I dose escalating, open label assessment of the safety and biologic activity of KPT-335 in client owned dogs with spontaneous malignancies. Assessment of clinical toxicities and tumor response was performed at each visit. Dogs were evaluated for hematologic and biochemical toxicities every 7 days with routine bloodwork. The initial dose of 1 mg/kg orally twice per week (Monday/Thursday or Tuesday/Friday) was based on previous data from normal laboratory dogs (data not shown) and dose escalation was set at 0.25 mg/kg increments in cohorts of 3 until dose limiting toxicity (DLT) was identified. The DLT was considered to be any grade 3 or 4 hematologic or non-hematologic toxicity based on the established VCOG-CTCAE criteria. […] Disease progression or signs and symptoms definitely related to disease were not considered adverse events (AEs). The maximum tolerated dose (MTD) was considered to be one dose below that at which DLT occurred.
Tumor assessments were completed prior to study entry, and days 7, 14, 21, and 28. For dogs that continued beyond 4 weeks, response assessments were performed every 2 weeks thereafter, or at the time of suspected tumor progression. Responses were assessed by the investigator according to pre-defined protocol criteria. The response in dogs with assessable disease was performed by clinical examination, ultrasonography, or thoracic radiography. Many lesions were not amenable for quantitative radiographic imaging, but were followed either by serial clinical examination (superficial lesions; palpable lymph nodes) or by ultrasonography (abdominal lymph nodes). Thoracic lesions were assessed by thoracic radiography.
The response in dogs with measurable disease was judged by the investigator on the basis of Response Evaluation Criteria for Peripheral Nodal Lymphoma in dogs (v1.0). A complete response (CR) was defined as disappearance of all disease on two measurements separated by a minimum period of 3 weeks. A partial response (PR) was defined as greater than 30% reduction in the sum of the longest diameter of the target lesions documented by two assessments separated by at least 3 weeks. An increase of >20% in the size of all measurable tumor areas as measured by the sum of longest diameters of the target lesions taken as reference the smallest sum since initiation of therapy, or the appearance of any new lesion(s) would qualify as progressive disease (PD). […] Dogs who had no evidence of tumor progression and who had not experienced any unacceptable toxicity were eligible for extended treatment cycles. Dose escalation from twice per week administration to three times per week administration in an individual dog was permitted if the dog was tolerating therapy.

## O=C(/C=C\n1cnc(-c2cc(C(F)(F)F)cc(C(F)(F)F)c2)n1)NNc1ccccn1 [KPT-335]
[1]
  apoptotic cells (Annexin V+ cells) compared to mock treated cells: increased apoptotic cells
[2]
  MTD: 2 mg/kg
CLBL1 cells
  apoptotic cells (Annexin V+ cells) compared to mock treated cells: increased apoptotic cells
[3]
  clinical benefit (CB: PR or SD >4 weeks), dogs with NHL: 9/14
  clinical benefit, dogs with NHL: 64%
  duration of PR, individual dogs: 71 days and 246 days
  median TTP, responding dogs with NHL: 66 days
  median duration of treatment, dogs with NHL: 10 weeks
  range of duration of treatment, dogs with NHL: 5–35 weeks
[3]; 8 dogs with SD
  median duration of SD: 58.5 days
  range of duration of SD: 28 to 84 days
[3]; 17 dogs
  TTP range, all dogs: 14 to 246 days
  dogs with PD in the first 4 weeks of therapy: 7
  median TTP, all dogs: 35 days
[3]; SD for greater than 28 days
  stable disease (SD), number of dogs with NHL: 7
[3]; all 17 dogs
  stable disease (SD), number of dogs: 8
[3]; lowest dose level
  dose at which biologic activity was observed: 1 mg/kg
